What was measured:
[1] = among the forms of U.S. Pat. No. 6,413,969; cited from earlier work
[2] = room temperature; among the forms of U.S. Pat. No. 6,413,969; cited from earlier work
[3] = heating of the crystalline form at about 50° C.; assay type: physicochemical; conditions: heating at about 50° C.
[4] = storage at ambient temperature and pressure (crystalline form conversion); assay type: physicochemical
[5] = compared with the hemihydrate; cited from earlier work
[6] = prolonged (e.g. 2 months) storage at ambient temperature and pressure

COc1c(N2CCNC(C)C2)c(F)cc2c(=O)c(C(=O)O)cn(C3CC3)c12 (stereo not shown) [pentahydrate, gatifloxacin]
thermodynamic stability [1]: most thermodynamically stable form | aqueous solubility [2]: lowest

COc1c(N2CCNC(C)C2)c(F)cc2c(=O)c(C(=O)O)cn(C3CC3)c12 (racemic) [form P, (±) 1-cyclopropyl-6-fluoro-1,4-dihydro-8-methoxy-7-(3-methyl-1-piperazinyl)-4-oxo-3-quinolinecarboxylic acid]
crystalline form after heating [3]: results in gatifloxacin form T1 | crystalline form after prolonged storage ([4]; prolonged (e.g. 1 month) storage at ambient temperature and pressure): converts to gatifloxacin sesquihydrate

COc1c(N2CCNC(C)C2)c(F)cc2c(=O)c(C(=O)O)cn(C3CC3)c12 (stereo not shown) [sesquihydrate, gatifloxacin]
stability in manufacturing [5]: more stable

COc1c(N2CCNC(C)C2)c(F)cc2c(=O)c(C(=O)O)cn(C3CC3)c12 (racemic) [form L, (±) 1-cyclopropyl-6-fluoro-1,4-dihydro-8-methoxy-7-(3-methyl-1-piperazinyl)-4-oxo-3-quinolinecarboxylic acid]
crystalline form after prolonged storage [4, 6]: converts to form Ω

COc1c(N2CCNC(C)C2)c(F)cc2c(=O)c(C(=O)O)cn(C3CC3)c12 (racemic) [form M, (±) 1-cyclopropyl-6-fluoro-1,4-dihydro-8-methoxy-7-(3-methyl-1-piperazinyl)-4-oxo-3-quinolinecarboxylic acid]
crystalline form after prolonged storage [4, 6]: converts to form T2RP (hemihydrate)

Source: patent US7396839B2, “Crystalline forms of gatifloxacin” (Teva Pharmaceuticals USA, Inc., priority 2002, dated 2008)
